From the SangsterLogP compilation

What was measured:
[1] = method code SF-HPLC, from DOI: 10.1002/jps.2600831027, PMID: 7884677; settings: pH 2.0
[2] = method code SF-AS, from DOI: 10.1080/00021369.1974.10861343; settings: for logD: pH 3.0
[3] = method code SF-AS, from DOI: 10.1021/je700381u; settings: pH 0.0
[4] = not given; remark: listed apart in the source
[5] = not given; remark: listed apart in the source
[6] = not given; remark: listed apart in the source
[7] = not given; remark: listed apart in the source
[8] = method code SF-C, from DOI: 10.1038/194178b0
[9] = not given; remark: listed apart in the source
[10] = method code SF-AS, from DOI: 10.1093/chemse/13.4.619; settings: pH 7.2
[11] = method code SF-GLC, from DOI: 10.1016/s0021-9673(01)83612-8; settings: pH 13.0
[12] = method code SF-AS, from DOI: 10.1021/jf60177a051
[13] = not given; remark: listed apart in the source
[14] = method code SF-AS, from DOI: 10.1021/jm00234a001, PMID: 1003419
[15] = not given; remark: listed apart in the source
[16] = not given; remark: listed apart in the source
[17] = method code SF-AS, from DOI: 10.1016/0378-5173(90)90042-3
[18] = method code SF-AS, from PMID: 8197227; settings: pH 7.4
[19] = not given; remark: listed apart in the source
[20] = method code SF-AS, from M. Kuchar, J. Tomkova, V. Rejholec, & O. Roubinek. (1992). Some problems of the chromatographic evaluation of lipophicity. In Kuchar, M. (Ed.) QSAR in Design of Bioactive Compounds (pp. 65-81). Prous …; settings: pH 3.4
[21] = method code SF-AS, from DOI: 10.1021/bi00730a008, PMID: 4688860
[22] = method code SF-HPLC, from DOI: 10.1016/0378-5173(87)90096-2; settings: pH 8.0
[23] = from Pratesi, P.; Villa, L.; Ferri, V.; DeMicheli, C.; Grana, E.; Grieco, C.; Silipo, C.; Vittoria, A. (1979). On the additive-constitutive properties of substituent hydrophobic parameters in a set of …
[24] = not given; remark: listed apart in the source
[25] = method code SF-AS, from DOI: 10.1002/ps.2780370107; settings: pH 0.0
[26] = method code SF-AS, from DOI: 10.1111/j.1476-5381.1975.tb07619.x, PMID: 1182339; settings: pH 10.0

COCc1ccc(C(=O)O)cc1
logD [1]: 1.76

CCCOC(=O)C=COc1ccccc1
logP [2]: 3.72

O=C(O)c1ccc(F)c(Br)c1
logD [3]: 3.56

O=[N+]([O-])c1ccc2cccccc1-2
logP: 2.59

C#CCc1ccc(COC(=O)C2C(C=C(C)C)C2(C)C)o1 (stereo unspecified)
logP [4]: 6.67

O=C(O)CCCCCCCOC(=O)Oc1ccccc1
logP [5]: 3.39

OCc1ccc(F)cc1
logP [6]: 1.36

COc1cccc(O)c1
logP [7]: 1.52

O=C(O)c1ccc(CCl)cc1
logD [1]: 2.12

NC(=O)Cc1ccc2cccccc1-2
logP: 2.48

Cc1cccc(OCC(=O)O)c1
logP [8]: 1.88

CC[C@H]1CCC[C@H](O[C@H]2CC[C@H](N(C)C)[C@@H](C)O2)[C@@H](C)C(=O)C2=C[C@@H]3[C@@H](C=C(C)[C@@H]4C[C@@H](O[C@@H]5O[C@@H](C)[C@H](OC)[C@@H](OC)[C@H]5OC)C[C@@H]34)[C@@H]2CC(=O)O1
logP [9]: 4.92

c1ccc(Cc2ccncc2)cc1
logD [10]: 2.62

CNCCCCc1ccccc1
logD [11]: 2.76

CC1=C(C(=O)Nc2ccccc2)S(=O)CCO1 (stereo unspecified)
logP [12]: 0.64

Clc1cccc2c1CCNCC2
logP [13]: 2.4

CNC(=O)c1c(I)c(NC(C)=O)c(I)c(O[C@@H]2O[C@H](CO)[C@@H](O)[C@H](O)[C@H]2O)c1I
logP [14]: -1.49

CCOP(=O)(OCC)O/C(=C/Cl)c1ccc(Cl)cc1Cl
logP [15]: 3.84

COCc1ccc(COC(=O)C2C(C=C(C)C)C2(C)C)cc1 (stereo unspecified)
logP [4]: 4.5

CC(=O)Nc1ccccc1Cl
logP [6]: 1.35

O=C1OCc2c(Cl)c(Cl)c(Cl)c(Cl)c21
logP [16]: 3.22

CCOC(=O)C=COc1ccccc1
logP [2]: 3.18

O=C(O)CCCCCCCCCCCCCCCOC(=O)Oc1ccccc1
logP [5]: 4.67

COC(=O)c1cc(=O)[nH]c(=O)[nH]1
logP [17]: 0.63

C(=NNc1nccs1)c1ccc2c(c1)OCO2
logD [18]: 1.5

COc1cccc(N)c1
logP [7]: 1.11

CCOC(=O)c1ccc2cccccc1-2
logP: 3.83

Cc1ccccc1CCN
logP [19]: 1.6

O=C(O)CCc1ccc(OCc2ccccc2)c(Cl)c1
logD [20]: 3.89

O=C(O)/C=C/Oc1ccccc1
logD [2]: 2.27

O=C(O)c1ccc2cccccc1-2
logD (pH 3.4): 2.88

Cc1ccc(NC=O)cc1
logP [21]: 1.61

NC(=O)Cc1cccnc1
logD [22]: -0.59

CNS(=O)(=O)c1ccccc1
logP [23]: 0.92

CC(=O)Nc1c(I)c(C(=O)N[C@H]2C(O)O[C@H](CO)[C@@H](O)[C@@H]2O)c(I)c(N(C)C(C)=O)c1I (stereo partly specified)
logP [14]: -1.89

CC(C)CCOC(=O)c1cc(=O)[nH]c(=O)[nH]1
logP [17]: 1.48

O=C(c1ccccc1)c1ccncc1
logD [10]: 1.9

NC1CCc2ccccc2C1 (stereo unspecified)
logD [11]: 2.08

O=C(O)COc1cccc(C(F)(F)F)c1
logP [8]: 2.52

O=C(O)c1ccccc1O
logP [24]: 1.75

NC(=O)Cc1ccccn1
logD [22]: -0.64

CNc1ccccc1
logP [6]: 1.69

O=C(O)c1cccc(Oc2ccccc2)c1
logP [9]: 3.6

O=C(Nc1ccccc1)N(Cc1ccc(Cl)cc1)C1CCCC1
logP [16]: 4.7

N#CCCOc1ccccc1
logP [23]: 1.61

CCOP(=O)(O)Cc1ccc(S(C)(=O)=O)cc1
logD [25]: -0.4

N=C(N)NC(=O)Nc1cccc([N+](=O)[O-])c1
logD [26]: 1.28

Cc1cccc(C)c1O
logP [7]: 2.38

c1ccc2c(c1)cc1ccc3cccc4ccc2c1c34
logP [24]: 6.57

O=[N+]([O-])c1ccc(Cc2ccncc2)cc1
logD [10]: 2.73

OCc1ccncc1
logP [6]: -0.04

CCOP(=O)(O)Cc1ccc(F)cc1
logD [25]: 1.25

COP(=S)(OC)Oc1c(Cl)cc(C)cc1Cl
logP [16]: 4.36

OCCCNc1ccccc1
logP [19]: 0.57

COc1ccc(NC(=O)NC(=N)N)cc1
logD [26]: 0.56

c1ccc2ccccc2c1
logP [15]: 3.43

CC(N)CC1CCCCCCC1 (stereo unspecified)
logD [11]: 3.7

O=S(=O)(O)c1ccc2ccccc2c1
logP [23]: 1.07

COCCN1CCc2cccc(Cl)c2CC1
logP [13]: 3

Cc1csc(NNC(=O)c2ccc3c(c2)OCO3)n1
logD [18]: 1.41

O=C(O)c1cc(F)ccc1Cl
logD [3]: 2.39

N=C(N)NC(=O)Nc1ccc(Cl)c(Cl)c1
logD [26]: 2.39

O=C(O)COc1ccc(Cl)cc1Cl
logP [9]: 2.71

NC(=O)Cc1ccncc1
logD [22]: -0.59

CC1=C(C(=O)O)SCCO1
logP [12]: 0.04

O=C(O)c1ccc(CO)cc1
logD [1]: 0.92

CC(=O)OC(c1ccc(Cl)c(Cl)c1)C(Cl)(Cl)Cl (stereo unspecified)
logP [4]: 4.92

O=C(O)COC(=O)Oc1ccccc1
logP [5]: 1.72

O=C(O)c1cccc(F)c1Cl
logD [3]: 1.74

O=C(O)CCCCCCCCCCCOC(=O)Oc1ccccc1
logP [5]: 4.26

O=CNc1ccc([N+](=O)[O-])cc1
logP [21]: 1.43

CCOP(=S)(OCC)Oc1cc(-c2ccccc2)on1
logP [16]: 4.58

O=C(O)c1cc(F)ccc1Br
logD [3]: 2.21

CCCCCCOc1ccc(CC(=O)O)cc1
logD [20]: 3.96

Cc1cc(C)cc(O)c1
logP [15]: 2.54

CCCN1CCc2cccc(Cl)c2CC1
logP [13]: 3.5

CC(=O)c1ccncc1
logD [10]: 0.4

COc1cccc(NC=O)c1
logP [21]: 1.25

O=C(O)Cc1ccc(C(=O)O)cc1
logD [1]: 1.24

NC(=S)NNC(=O)c1ccc2c(c1)OCO2
logD [18]: 0.21

CC1=C(C(=O)Nc2ccccc2-c2ccccc2)SCCO1
logP [12]: 2.54

O=C(O)c1ccccc1C(=O)O
logP [9]: 0.87

CC(C)Cc1ccc(CC(=O)O)cc1
logD [20]: 3.35

COc1ccc(NC=O)cc1
logP [21]: 1.03

Oc1ccc(C2CCCCC2)cc1
logP [23]: 4.22

COc1cc(NC(=O)NC(=N)N)ccc1C#N
logD [26]: 1.28

CC(=O)c1cccc(OCC(=O)O)c1
logP [8]: 1.34

c1cc2cccc3c4cccc5cccc(c(c1)c23)c54
logP [24]: 6.53

Nc1ccc(F)c(Cl)c1
logP [15]: 1.95

CCOC(=O)c1cc(=O)[nH]c(=O)[nH]1
logP [17]: 0.68

OC[C@H]1O[C@@H](Oc2ccc(I)c(O[C@@H]3O[C@H](CO)[C@@H](O)[C@H](O)[C@H]3O)c2I)[C@H](O)[C@@H](O)[C@@H]1O
logP [14]: -1.31

CC1=C(C(=O)Nc2ccccc2)SCCO1
logP [12]: 1.73

COc1ccc(C(O)C(=O)O)cc1 (stereo unspecified)
logD [20]: 0.63

Cc1ccc(CCN)cc1
logP [19]: 1.83

O=C(NNc1nccs1)c1ccc2c(c1)OCO2
logD [18]: 1.06

O=C(O)/C=C/Oc1ccccc1Cl
logD [2]: 2.69

N#Cc1cccc(OCC(=O)O)c1
logP [8]: 1.2

CS(=O)(=O)NCCN1CCc2cccc(Cl)c2CC1
logP [13]: 2.51

CCCCCOC(=O)c1cc(=O)[nH]c(=O)[nH]1
logP [17]: 1.62

Nc1ccccc1[N+](=O)[O-]
logP [7]: 1.62

NC(=O)CCCc1ccccn1
logD [22]: 0.06

CCOP(=O)(O)Cc1ccccc1
logD [25]: 0.81

CCOP(=O)(O)Cc1ccc(-c2ccccc2)cc1
logD [25]: 2.37

c1ccc2c(c1)ccc1c3ccccc3ccc21
logP [24]: 6.01

NCCCCc1ccccc1
logP [19]: 2.25

CC1(C)C(/C=C(\Cl)C(F)(F)F)C1C(=O)OC(C#N)c1cccc(Oc2ccccc2)c1 (stereo unspecified)
logP [4]: 6.02
